Laboratory results: US9849135B2, “USP14 inhibitors for treating or preventing viral infections” (priority 2013, dated 2017)
Read-outs that look alike come from different tables or passages of the source.

Columns and labels:
[1] = tested on: DENV2 (New Guinea C strain); type: cell-based, Dengue virus; conditions: 100 μM IU1; preincubated cells
WNV (WNO2-1956) = type: cell-based, West Nile virus
[2] = tested on: yellow fever virus (YFV, 17D vaccine strain); type: cell-based
LACV (LAC74-32813) = type: cell-based, La Crosse virus
DENV2 = type: cell-based, Dengue virus
CHIKV (LR2006-OPY1) = type: cell-based, Chikungunya virus

Cc1cc(C(=O)CN2CCCC2)c(C)n1-c1ccc(F)cc1 [IU1, 1-(1-(4-fluorophenyl)-2,5-dimethyl-1H-pyrrol-3-yl)-2-(pyrrolidin-1-yl)ethanone]
plaques in plaque assay [1]: No plaques were observed
WNV titer reduction (WNV (WNO2-1956)): 3-5 fold
WNV titer versus without the drug (WNV (WNO2-1956)): significantly higher
plaques in plaque assay (WNV) (WNV (WNO2-1956)): no plaques were observed
YFV titer reduction [2]: 3-5 fold
LACV replication reduction (LACV (LAC74-32813)): 3 fold
titer, % of maximum (DENV2; 75 μM IU1, post-infection addition): 37%
titer, % of maximum (DENV2; 100 μM IU1, post-infection addition): 0.5%
effect on CHIKV replication (CHIKV (LR2006-OPY1)): negligible or non-existent
